From patent US20210030867A1, “ADJUVANT COMPOSITION CONTAINING ALUMINUM AND VACCINE COMPOSITION CONTAINING THE SAME” (TERUMO KABUSHIKI KAISHA, priority 2015, published 2021)

Assays:
[1] = Release test (measurement of leakage; membrane-disruption function); conditions: for pH 5.0 Leakage (%) Lb5.0 Amphipathic substance alone / pH 7.4 Leakage (%) Lb7.4 Amphipathic substance alone: labelled amphipathic substance alone; for pH 5.0 Leakage (%) La5.0 pH-sensitive compound alone / pH 7.4 Leakage (%) La7.4 pH-sensitive compound alone: labelled pH-sensitive compound alone
Description: The term “membrane-disruption function” means a function to bring about release in the release test. The release test described herein is a test consisting of the steps of adding liposomes (dispersion) embracing an aqueous solution containing a quenching substance and a fluorescent substance and a dispersion of an evaluation sample to a properly pH-adjusted aqueous solution, incubating the resulting aqueous solution at 37° C. for 90 minutes or 30 minutes, and measuring the intensity of fluorescence of the incubated aqueous solution. This method makes it possible to measure the amount of the fluorescent substance which has been released from the liposomes, and to confirm the membrane-disruption function of the pH-sensitive carrier. Note that the release test will be described in more detail in the Examples to be described later.
The leakage was evaluated according to the method described in K. Kono et al., Bioconjugate Chem. 2008 19 1040-1048. The evaluation was performed using EYPC liposomes which contain Pyranine as a fluorescent substance and DPX as a quencher.
3,000 nmol of EYPC dissolved in chloroform was measured and placed in a 10-mL eggplant-shaped flask, and the EYPC was made into thin film by means of a rotary evaporator. To the flask was added 500 μL of a Pyranine solution (Pyranine: 35 mM, DPX: 50 mM, MES: 25 mM, pH 7.4), followed by dispersion using an ultrasonic irradiator (USC-J), and then the resulting dispersion was passed through a polycarbonate film having a pore diameter of 100 nm by use of an extruder, so as to make the particle diameter uniform. The resulting dispersion underwent substitution of the outer aqueous layer using MES Buffer and G100 column, to obtain a dispersion of EYPC liposomes embracing the fluorescent substance. The concentration of the phospholipid was determined using phospholipid C-test Wako, and it was adjusted with MES Buffer so that phospholipid became 1.0 mmol/L.
20 μL of the dispersion of EYPC liposomes adjusted in concentration and 20 μL of an evaluation sample dispersion were added to 2960 μL of pH-adjusted MES Buffer, and the resulting mixture was subjected to incubation at 37° C. for 90 or 30 minutes (Values resulting from incubation for 90 minutes are adopted in Examples, unless otherwise specified.). Fluorescence at Ex461 nm and Em512 nm was observed by use of a spectrophotometer FP-6500 to monitor the leakage.
Note that the leakage was calculated assuming that the value in the case of using the dispersion alone of EYPC liposomes is 0% and the value in the case of adding 30 μL of 10-fold diluted Triton-X100 is 100%. Specifically, the leakage was calculated according to the following formula. Note that in the following formula, L represents the intensity of fluorescence measured, L0 represents the intensity of fluorescence of only the dispersion of EYPC liposomes embracing the fluorescent substance, and L100 represents the intensity of fluorescence in the case of adding Triton-X100.
First, the influence on the effect of promoting the membrane-disruption function was examined. […] After incubating the evaluation samples overnight, part (20 μL) of each evaluation sample was put to a release test. The release test was conducted according to the above-described release test.

[2] = system: cell-mediated immunity (CTL); assay: Induction of cell-mediated immunity (CTL) in immunized mice, IFNγ ELIspot method on spleen cells; format: in vivo, C57BL/6N mouse
Description: Administration was performed under anesthesia. In the case of subcutaneous administration, it is carried out by subcutaneous injection, 100 μL/head, at one position on the back. […] As for the pH-sensitive carrier, a fundamental dose concentration for the amphipathic substance was 100 nmol/head, that for the pH-sensitive compound was 10 to 640 nmol/head, and part thereof was administered in diluted conditions. As the antigen, OVA protein or OVA peptide was used, the dose being 80 μg/head. […] In the case of evaluating cell-mediated immunity, administration was performed once and assay was conducted seven days after the administration.
The mouse was euthanized on the seventh day after the last administration and had its spleen extracted. After addition of 3.0 mL of RPMI medium containing 10% serum, the spleen was treated by the BD Falcon cell strainer, to obtain a suspension of cells. The cells were subjected to hemolysis with RBC lysis buffer, followed by washing with RPMI medium containing 10% serum. The cells were dispersed into RPMI medium containing 10% serum, after which the number of cells was counted, and a dispersion of spleen cells was obtained.
The ELIspot method was carried out by using the Mouse IFNγ ELISPOT Set. One day before cell inoculation, the 96-well ELispot plate was allowed to adsorb the detection antibody attached to the kit, to make the plate. The thus made plate was washed with RPMI medium containing 10% serum, after which 200 μL of 10% serum-containing RPMI medium was added thereto, and the plate was left to stand at 37° C. for two hours for blocking. The plate was washed with 10% serum-containing RPMI medium. In the case where the antigen undergoes restimulation, 100 μL of 10% serum-containing RPMI medium containing 40 μg/mL of OVA peptide was added to the plate. […]
The candidate substances were all used in an amount of 10 μg per mouse, and OVA protein was used as the antigen in an amount of 80 μg per mouse. […] Induction of cell-mediated immunity was evaluated according to the ELispot method described hereinabove. […]

[3] = subcutaneous, once, assay after seven days, candidate substance/alum 10 μg, OVA protein 80 μg per mouse, carrier where used 100 nmol DLPC + 160 nmol deoxycholic acid, restimulation with OVA peptide

Molecule: Cc1c(C)c2c(c(C)c1O)CCC(C)(CCCC(C)CCCC(C)CCCC(C)C)O2 (racemic) [Tocopherol, DL-α-tocopherol]
- pH 5.0 Leakage (%) Lb5.0 Amphipathic substance alone ([1]; pH 5.0): 1.2%
- pH 7.4 Leakage (%) Lb7.4 Amphipathic substance alone [1]: 1.7%
- induction of cell-mediated immunity (spot formation, ELIspot) ([2]; mouse, in vivo, sc): did not induce cell-mediated immunity

Molecule: CC(=O)Oc1c(C)c(C)c2c(c1C)CCC(C)(CCC[C@H](C)CCC[C@H](C)CCCC(C)C)O2 (mixture of isomers) [tocopherol acetate, DL-α-tocopherol acetate, reference compound]
- induction of cell-mediated immunity (spot formation, ELIspot) [2, 3]: did not induce cell-mediated immunity

Molecule: C[C@H](CCC(=O)O)[C@H]1CC[C@H]2[C@@H]3[C@H](O)C[C@@H]4C[C@H](O)CC[C@]4(C)[C@H]3CC[C@]12C [Chenodeoxycholic acid]
- pH 5.0 Leakage (%) La5.0 pH-sensitive compound alone ([1]; pH 5.0): 3.1%
- pH 7.4 Leakage (%) La7.4 pH-sensitive compound alone [1]: 1.1%

Molecule: CCCCCCCCCC(=O)OC[C@H](COP(=O)([O-])OCC[N+](C)(C)C)OC(=O)CCCCCCCCC [DDPC, 1,2-didecanoyl-sn-glycero-3-phosphatidylcholine]
- pH 5.0 Leakage (%) Lb5.0 Amphipathic substance alone ([1]; pH 5.0): 10.1%
- pH 7.4 Leakage (%) Lb7.4 Amphipathic substance alone [1]: 8.4%

Molecule: CCCCCCCCCCCC(=O)OC[C@H](COP(=O)([O-])OCC[N+](C)(C)C)OC(=O)CCCCCCCCCCC [DLPC, 1,2-dilauroyl-sn-glycero-3-phosphatidylcholine]
- pH 5.0 Leakage (%) Lb5.0 Amphipathic substance (DLPC) alone ([1]; pH 5.0, DLPC alone): 1.9%

Molecule: CCCCCCCCCCCCCCCCCC(=O)OCC(CO)OC(=O)CCCCCCCCCCCCCCCCC (centres unmarked) [Glycerol distearate, glycerol distearate]
- pH 5.0 Leakage (%) Lb5.0 Amphipathic substance alone ([1]; pH 5.0): 4.0%
- pH 7.4 Leakage (%) Lb7.4 Amphipathic substance alone [1]: 0.3%

Molecule: CCCCCCCC/C=C\CCCCCCCC(=O)OCC(O)CO (centres unmarked) [Glycerol monooleate, glycerol monooleate]
- pH 5.0 Leakage (%) Lb5.0 Amphipathic substance alone ([1]; pH 5.0): 6.0%
- pH 7.4 Leakage (%) Lb7.4 Amphipathic substance alone [1]: 4.1%

Molecule: CC(CCC(=O)NCC(=O)O)C1CCC2C3CCC4CC(O)CCC4(C)C3CC(O)C12C (centres unmarked) [Glycodeoxycholic acid]
- pH 5.0 Leakage (%) La5.0 pH-sensitive compound alone ([1]; pH 5.0): 5.9%
- pH 7.4 Leakage (%) La7.4 pH-sensitive compound alone [1]: 1.6%

Molecule: CC1(C)[C@@H](O[C@H]2O[C@H](C(=O)O)[C@@H](O)[C@H](O)[C@H]2O[C@@H]2O[C@H](C(=O)O)[C@@H](O)[C@H](O)[C@H]2O)CC[C@]2(C)[C@H]3C(=O)C=C4[C@@H]5C[C@@](C)(C(=O)O)CC[C@]5(C)CC[C@@]4(C)[C@]3(C)CC[C@@H]12 [Glycyrrhizinic acid]
- pH 5.0 Leakage (%) Lb5.0 Amphipathic substance alone ([1]; pH 5.0): 4.0%
- pH 5.0 Leakage (%) La5.0 pH-sensitive compound alone ([1]; pH 5.0): 3.0%
- pH 7.4 Leakage (%) Lb7.4 Amphipathic substance alone [1]: 0.3%
- pH 7.4 Leakage (%) La7.4 pH-sensitive compound alone [1]: 0.8%

Molecule: C[C@H](CCC(=O)O)[C@H]1CC[C@H]2[C@@H]3C[C@H](O)[C@@H]4C[C@H](O)CC[C@]4(C)[C@H]3CC[C@]12C [Hyodeoxycholic acid]
- pH 5.0 Leakage (%) La5.0 pH-sensitive compound alone ([1]; pH 5.0): 2.8%
- pH 7.4 Leakage (%) La7.4 pH-sensitive compound alone [1]: 0.6%

Molecule: CCCCCCCCCCCC(=O)OCC(O)COC(=O)CCCCCCCCCCC [α,α′-dilaurin]
- pH 5.0 Leakage (%) Lb5.0 Amphipathic substance alone ([1]; pH 5.0): 0.8%
- pH 7.4 Leakage (%) Lb7.4 Amphipathic substance alone [1]: 1.0%

Molecule: Polyoxyethylene 10 castor oil [Peg (10) castor oil]
- pH 5.0 Leakage (%) Lb5.0 Amphipathic substance alone ([1]; pH 5.0): 6.2%
- pH 7.4 Leakage (%) Lb7.4 Amphipathic substance alone [1]: 3.4%

Molecule: polyoxyethylene sorbitan monolauric acid ester [Tween 20]
- pH 5.0 Leakage (%) Lb5.0 Amphipathic substance alone ([1]; pH 5.0): 48.8%
- pH 7.4 Leakage (%) Lb7.4 Amphipathic substance alone [1]: 50.4%

Molecule: polyoxyethylene sorbitan monooleic acid ester [Tween 80]
- pH 5.0 Leakage (%) Lb5.0 Amphipathic substance alone ([1]; pH 5.0): 1.6%
- pH 7.4 Leakage (%) Lb7.4 Amphipathic substance alone [1]: 0.6%

Molecule: polyoxyethylene sorbitan monopalmitic acid ester [Tween 40]
- pH 5.0 Leakage (%) Lb5.0 Amphipathic substance alone ([1]; pH 5.0): 11.5%
- pH 7.4 Leakage (%) Lb7.4 Amphipathic substance alone [1]: 8.3%

Molecule: polyoxyethylene sorbitan monostearic acid ester [Tween 60]
- pH 5.0 Leakage (%) Lb5.0 Amphipathic substance alone ([1]; pH 5.0): 6.7%
- pH 7.4 Leakage (%) Lb7.4 Amphipathic substance alone [1]: 3.8%

Molecule: sorbitan monooleate [Span80]
- pH 5.0 Leakage (%) Lb5.0 Amphipathic substance alone ([1]; pH 5.0): 7.3%
- pH 7.4 Leakage (%) Lb7.4 Amphipathic substance alone [1]: 4.4%

Molecule: sorbitan palimitic acid ester [Span40]
- pH 5.0 Leakage (%) Lb5.0 Amphipathic substance alone ([1]; pH 5.0): 1.6%
- pH 7.4 Leakage (%) Lb7.4 Amphipathic substance alone [1]: 0.6%

Molecule: sorbitan stearic acid ester [Span60]
- pH 5.0 Leakage (%) Lb5.0 Amphipathic substance alone ([1]; pH 5.0): 4.3%
- pH 7.4 Leakage (%) Lb7.4 Amphipathic substance alone [1]: 1.6%

Molecule: sorbitan trioleic acid ester [Span85]
- pH 5.0 Leakage (%) Lb5.0 Amphipathic substance alone ([1]; pH 5.0): 2.0%
- pH 7.4 Leakage (%) Lb7.4 Amphipathic substance alone [1]: 1.8%

Molecule: sorbitan tristearic acid ester [Span65]
- pH 5.0 Leakage (%) Lb5.0 Amphipathic substance alone ([1]; pH 5.0): 4.2%
- pH 7.4 Leakage (%) Lb7.4 Amphipathic substance alone [1]: 1.5%

B1: antigen alone: OVA protein (Ovalbumin, low endotoxin) administered alone as comparative sample (protein, UniProt P01012 2-386, looked up)
Ovalbumin: GSIGAASMEFCFDVFKELKVHHANENIFYCPIAIMSALAMVYLGAKDSTRTQINKVVRFDKLPGFGDSIEAQCGTSVNVHSSLRDILNQITKPNDVYSFSLASRLYAEERYPILPEYLQCVKELYRGGLEPINFQTAADQARELINSWVESQTNGIIRNVLQPSSVDSQTAMVLVNAIVFKGLWEKAFKDEDTQAMPFRVTEQESKPVQMMYQIGLFRVASMASEKMKILELPFASGTMSMLVLLPDEVSGLEQLESIINFEKLTEWTSSNVMEERKIKVYLPRMKMEEKYNLTSVLMAMGITDVFSSSANLSGISSAESLKISQAVHAAHAEINEAGREVVGSAEAGVDAASVSEEFRADHPFLFCIKHIATNAVLFFGRCVSP
modifications: low endotoxin
- induction of cell-mediated immunity (spot formation, ELIspot) [2, 3]: did not induce cell-mediated immunity
